Structures can show the parent of a compound that is named as a salt.
Legend:
CETP [1] = target: T1, CETP (Homo sapiens, UniProt P11597); experiment: CETP inhibitory action in human plasma (Roar Biomedical CETP Activity kit, fluorescence); assay type: biochemical; conditions: human plasma incubated with compound at 37° C. for 4 hours; read-out: IC50 (concentration inhibiting the CETP activity by 50%)
T1 construct: The CETP activity in this plasma was measured with Cholesteryl Ester Transfer Protein Activity kit; from tissue; host or cells: human plasma
T1 sequence (P11597 18-493): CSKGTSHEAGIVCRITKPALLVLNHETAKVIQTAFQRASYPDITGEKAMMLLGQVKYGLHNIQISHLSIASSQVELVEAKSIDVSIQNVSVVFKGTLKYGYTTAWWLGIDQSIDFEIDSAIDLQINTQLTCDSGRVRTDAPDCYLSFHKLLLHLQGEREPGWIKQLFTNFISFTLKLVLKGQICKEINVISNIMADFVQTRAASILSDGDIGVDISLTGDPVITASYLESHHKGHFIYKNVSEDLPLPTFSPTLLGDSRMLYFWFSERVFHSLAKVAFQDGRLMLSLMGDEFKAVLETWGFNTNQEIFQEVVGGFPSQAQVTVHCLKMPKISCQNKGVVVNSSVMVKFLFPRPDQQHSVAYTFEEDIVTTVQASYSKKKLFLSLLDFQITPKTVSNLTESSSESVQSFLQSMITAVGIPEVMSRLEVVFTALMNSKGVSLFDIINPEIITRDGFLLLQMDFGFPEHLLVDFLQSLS
Procedure: A solution obtained by dissolving an exemplary compound or a comparative compound in polyethyleneglycol/N-methyl-2-pyrrolidone (vol/vol=1/1) was added to human plasma, and the mixture was incubated in an incubator at 37° C. for 4 hours. The CETP activity in this plasma was measured with Cholesteryl Ester Transfer Protein Activity kit (Roar Biomedical, catalog No.: RB-CETP). Specifically, to each well of a 96-well plate, 95 μL of a buffer (10 mM Tris, 150 mM NaCl, 2 mM EDTA, pH 7.4), 2 μL of Donor particle and 2 μL of Acceptor particle were added, 1 μL of the human plasma after the incubation was added to the mixture, and the mixture was incubated in an incubator at 37° C. for 2 hours. After completion of the incubation, fluorescence intensity (FLU) was measured with a fluorescence plate reader (excitation wavelength: 465 nm, emission wavelength: 535 nm). In accordance with the following equation 1, the CETP activity (% of control) was obtained for the compounds of the examples and the comparative compounds for two or more concentrations. CETP activity (% of control)=(Sample FLU−Blank FLU)×100/(Control FLU−Blank FLU) (Equation 1) In the equation, the terms have the following meanings: Blank: No addition of plasma Control: Plasma not added with solution of compound Sample: Plasma added with solution of compound
A value obtained by subtracting the value of the CETP activity from 100 was defined as the CETP inhibitory rate of each exemplary compound and comparative compound, and a concentration inhibiting the CETP activity by 50% (IC50) was calculated for each exemplary compound and comparative compound from the values of the CETP inhibitory rate at two or more concentrations. As the comparative compounds, the following compounds were used, which are compounds having a benzyl(heterocyclylmethyl)amine structure described in Examples 52, 66 and 79 of Patent document 9 (International Patent Publication WO2006/073973).

CETP [2] = experiment: CETP inhibitory activity in blood of hamster (single oral administration); assay type: in vivo; conditions: 30 mg/kg single oral dose in olive oil, blood collected 2 hours after administration, n=3, control 33.7 ± 2.3
Procedure: 1: Labeling of Donor Lipoprotein (HDL3 Fraction) with ^3H-Cholesterol and Preparation of Acceptor Lipoprotein (LDL Fraction)
The donor lipoprotein was prepared by adding KBr to plasma of healthy human subject (50 mL) to adjust the specific gravity (d) of the plasma to be 1.125, centrifuging the mixture at 100,000 rpm and 4° C. for 2.5 hours (Optima Max-E TLA-100.2 rotor, Beckman), and collecting the lower layer (HDL3 fraction, d>1.125). The resulting fraction was dialyzed against PBS (10 mM Na2HPO4, 10 mM NaH2PO4, 0.15 M NaCl, 1 mM EDTA-2Na, pH 7.4). Then, a 95% ethanol solution of 9.25 MBq 1, 2-3H(N)cholesterol (NEN™, Life Science Products, USA) was added to the sample with stirring, and the mixture was incubated at 37° C. for 18 hours. After the incubation, the mixture was added with KBr to adjust the specific gravity thereof to be 1.210, and centrifuged under the same conditions as mentioned above to obtain the upper layer (^3H-labeled HDL3 fraction, 1.125<d<1.210). The ^3H-labeled HDL3 was dialyzed against PBS, and used for the measurement of the CETP activity.
The acceptor lipoprotein was prepared as follows. Plasma of healthy human subject (30 mL) was centrifuged under the same conditions as mentioned above, and the upper layer (chylomicron and VLDL fraction, d<1.006) was removed. The lower layer was added with KBr to adjust the specific gravity thereof to be 1.063, and centrifuged under the same conditions to obtain the upper layer (LDL fraction, 1.006<d<1.063). The LDL fraction was dialyzed against PBS and used for the measurement of the CETP activity.
Each of the compounds of Examples 10 and 13 and the comparative compounds was dissolved in olive oil and orally administered once to the animals, and blood was collected from the abdominal portion of vena cava under pentobarbital anesthetization 2 hours after the administration. Further, as a control, olive oil in which any compound was not dissolved was administered, and blood was collected in a similar manner (n=3 for each).
(§1) To 10 μL of the hamster plasma, 5 μL of ^3H-labeled HDL3 and 20 μL of LDL were added, and the final volume of the mixture was made […] with a TBS solution (10 mM Tris, 0.15 M NaCl, pH 7.4). The mixture was incubated at 37° C. for 18 hours, then added with 400 μL of the TBS solution containing 0.15 M MgCl2 and 0.3% dextran sulfate, stirred (10 sec×2) with VORTEX-2 (Scientific Industries Inc.), left for 30 minutes on ice, and centrifuged at 4° C. and 8,000 rpm for 10 minutes (MX-301, TOMY). The resulting centrifugation supernatant (^3H-labeled HDL3 fraction) in a volume of 300 μL was collected in a vial, and added with 3.6 mL of a scintillator (Aquazol-2, Packard), and the mixture was stirred. Then, radioactivity of ^3H was measured with a liquid scintillation counter (TRI-CARB 2700 TR, Packard). The CETP activity (%) was obtained in accordance with the following equation 2. CETP activity (%)=(Blank dpm−Sample dpm)×100/(Blank dpm) (Equation 2) In the equation, the terms have the following meanings: Blank dpm: Value of ^3H radioactivity of sample not added with plasma Sample dpm: Value of ^3H radioactivity of sample added with compound or control sample.

CETP [3] = experiment: CETP inhibitory activity in blood of hamster (repetitive oral administration for 7 days); assay type: in vivo; conditions: 100 mg/kg orally once a day for 7 days, blood collected 2 hours after final administration, n=5, control 43.5 ± 6.4
Procedure: as §1, with “sample. […]” for “sample.”

SMILES	melting point	IC50 (CETP [1])	Average CETP activity ± standard deviation (%) (CETP [2])	Average CETP activity ± standard deviation (%) (CETP [3])
CCN(CC1CCCC1)c1ccc(OC)nc1CN(Cc1cc(C(F)(F)F)cc(C(F)(F)F)c1)c1ncc(OCCS(C)(=O)=O)cn1 (as salt: hydrochloride) [Example 13, 2-[N-[3,5-bis(trifluoromethyl)benzyl]-N-[3-(N-cyclopentylmethyl-N-ethyl)amino-6-methoxypyridin-2-yl]methyl]amino-5-(2-methylsulfonylethoxy)pyrimidine]	67 to 71 °C			
CCN(CC1CCCC1)c1nc(C)c(C)cc1CN(Cc1cc(C(F)(F)F)cc(C(F)(F)F)c1)c1nnn(C)n1 [Comparative Compound 3, reference compound]		1500 nM	15.0 ± 4.0%	
CCN(CC1CCCC1)c1ccc(OC)nc1CN(Cc1cc(C#N)cc(C(F)(F)F)c1)c1ncc(OCC[S+](C)[O-])cn1 (stereo not drawn) [Example 9, 2-[N-(3-cyano-5-trifluoromethylbenzyl)-N-[3-(N-cyclopentylmethyl-N-ethyl)amino-6-methoxypyridin-2-yl]methyl]amino-5-(2-methylsulfinylethoxy)pyrimidine]		90 nM		
CCN(CC1CCCC1)c1ccc(OC)nc1CN(Cc1cc(C#N)cc(C(F)(F)F)c1)c1ncc(OCCS(C)(=O)=O)cn1 [Example 10, 2-[N-(3-cyano-5-trifluoromethylbenzyl)-N-[3-(N-cyclopentylmethyl-N-ethyl)amino-6-methoxypyridin-2-yl]methyl]amino-5-(2-methylsulfonylethoxy)pyrimidine]	97.2 to 98.2 °C	35 nM	2.6 ± 1.1%	11.4 ± 6.0%
CCN(CC1CCCC1)c1ccc(OC)nc1CN(Cc1cc(C#N)cc(C#N)c1)c1ncc(OCC[S+](C)[O-])cn1 (stereo not drawn) [Example 41, 2-[N-[3-(N-cyclopentylmethyl-N-ethyl)amino-6-methoxypyridin-2-yl]methyl-N-(3,5-dicyanobenzyl)]amino-5-(2-methylsulfinylethoxy)pyrimidine]		500 nM		

Further compounds by falling IC50 (CETP [1]), results first:

melting point	IC50 (CETP [1])	SMILES	Average CETP activity ± standard deviation (%) (CETP [2])	Average CETP activity ± standard deviation (%) (CETP [3])
	20000 nM	CCN(CC1CCCC1)c1nc2ccccc2cc1CN(Cc1cc(C(F)(F)F)cc(C(F)(F)F)c1)c1ncccn1 [Comparative Compound 2, reference compound]	30.3 ± 4.2%	
	1000 nM	CCN(CC1CCCC1)c1nc2ccccc2cc1CN(Cc1cc(C(F)(F)F)cc(C(F)(F)F)c1)c1nnn(C)n1 [Comparative Compound 1, reference compound]	22.9 ± 3.3%	
	350 nM	CCN(CC1CCCC1)c1ccc(OC)nc1CN(Cc1cc(C(F)(F)F)cc(C(F)(F)F)c1)c1ncc(OCC[S+](C)[O-])cn1 (stereo not drawn) [Example 12, 2-[N-[3,5-bis(trifluoromethyl)benzyl]-N-[3-(N-cyclopentylmethyl-N-ethyl)amino-6-methoxypyridin-2-yl]methyl]amino-5-(2-methylsulfinylethoxy)pyrimidine]		
	250 nM	CCN(CC1CCCC1)c1ccc(OC)nc1CN(Cc1cc(C(F)(F)F)cc(C(F)(F)F)c1)c1ncc(OCCS(C)(=O)=O)cn1 [Example 13, 2-[N-[3,5-bis(trifluoromethyl)benzyl]-N-[3-(N-cyclopentylmethyl-N-ethyl)amino-6-methoxypyridin-2-yl]methyl]amino-5-(2-methylsulfonylethoxy)pyrimidine]	8.5 ± 1.7%	9.0 ± 1.7%
	250 nM	CCN(CC1CCCC1)c1ccc(OC)nc1CN(Cc1cc(C#N)cc(C#N)c1)c1ncc(OCCS(C)(=O)=O)cn1 [Example 42, 2-[N-[3-(N-cyclopentylmethyl-N-ethyl)amino-6-methoxypyridin-2-yl]methyl-N-(3,5-dicyanobenzyl)]amino-5-(2-methylsulfonylethoxy)pyrimidine]		

Source: US7750019B2, “Pyrimidine compound having benzyl(pyridylmethyl)amine structure and medicament comprising the same” (Kowa Company, Ltd., priority 2006, dated 2010)
